Measurements: the CheMixHub viscosity set

Assay: xn = mol fraction of the nth substance listed

CC1CCC(C)O1 (stereo not given) + Brc1ccccc1
viscosity [mPa·s], 101 kPa
Details | x1 = 0.0965 | x1 = 0.2006 | x1 = 0.3011 | x1 = 0.4016 | x1 = 0.4921
298.15 K | 1.003 | 0.941 | 0.8808 | 0.8196 | 0.7658
313.15 K | 0.833 | 0.7831 | 0.7338 | 0.6848 | 0.6411

CC1CCCO1 (stereo not given) + Brc1ccccc1
viscosity [mPa·s], 101 kPa
Details | x1 = 0.0991 | x1 = 0.1998 | x1 = 0.301 | x1 = 0.4046 | x1 = 0.5029
298.15 K | 1.007 | 0.9516 | 0.8942 | 0.8346 | 0.7773
313.15 K | 0.835 | 0.7895 | 0.7425 | 0.6943 | 0.6477

CC(C)CO + C1CCCCC1
303.15 K, 101.33 kPa
Details | viscosity [mPa·s]
x2 = 0.1485 | 1.976
x2 = 0.2985 | 1.513
x2 = 0.4515 | 1.185
x2 = 0.6051 | 0.962
x2 = 0.7417 | 0.839
x2 = 0.8981 | 0.762

CCOC(=O)CC + C1CCCCC1
viscosity [mPa·s], 101 kPa
Details | 298.15 K | 308.15 K
x1 = 0.0526 | 0.835 | 0.709
x1 = 0.1334 | 0.767 | 0.65
x1 = 0.2568 | 0.686 | 0.579
x1 = 0.3148 | 0.656 | 0.553
x1 = 0.4538 | 0.603 | 0.505
x1 = 0.4986 | 0.59 | 0.493
x1 = 0.5085 | 0.588 | 0.491
x1 = 0.6558 | 0.561 | 0.465
x1 = 0.7181 | 0.556 | 0.459
x1 = 0.8504 | 0.556 | 0.456
x1 = 0.9312 | 0.564 | 0.459

Cc1ccccc1O + C1CCCCC1
308.15 K, 101 kPa
Details | viscosity [mPa·s]
x1 = 0.0821 | 0.8505
x1 = 0.1618 | 0.9431
x1 = 0.2824 | 1.146
x1 = 0.3677 | 1.341
x1 = 0.4418 | 1.568
x1 = 0.5033 | 1.708
x1 = 0.5871 | 2.049
x1 = 0.7934 | 3.199
x1 = 0.8996 | 4.104

C=CC(=O)OC + C1CCOC1
viscosity [mPa·s], 101 kPa
Details | 293.15 K | 298.15 K | 303.15 K | 308.15 K | 313.15 K | 318.15 K
x2 = 0.0773 | 0.4982 | 0.4567 | 0.4181 | 0.3852 | 0.3553 | 0.3283
x2 = 0.1554 | 0.4934 | 0.454 | 0.4172 | 0.3854 | 0.3561 | 0.3294
x2 = 0.2064 | 0.4907 | 0.4527 | 0.4169 | 0.3858 | 0.3569 | 0.3304
x2 = 0.2545 | 0.4885 | 0.4517 | 0.417 | 0.3865 | 0.3579 | 0.3315
x2 = 0.3215 | 0.486 | 0.4508 | 0.4174 | 0.3878 | 0.3596 | 0.3333
x2 = 0.3989 | 0.4838 | 0.4505 | 0.4186 | 0.3898 | 0.362 | 0.3358
x2 = 0.4655 | 0.4826 | 0.4507 | 0.4201 | 0.392 | 0.3644 | 0.3382
x2 = 0.53 | 0.4819 | 0.4515 | 0.422 | 0.3945 | 0.3671 | 0.3409
x2 = 0.6023 | 0.4819 | 0.453 | 0.4246 | 0.3977 | 0.3706 | 0.3442
x2 = 0.6834 | 0.4826 | 0.4553 | 0.4282 | 0.4018 | 0.3748 | 0.3483
x2 = 0.7632 | 0.4841 | 0.4583 | 0.4323 | 0.4064 | 0.3795 | 0.3528
x2 = 0.8468 | 0.4865 | 0.4622 | 0.4372 | 0.4118 | 0.3849 | 0.3579
x2 = 0.9316 | 0.4899 | 0.467 | 0.4429 | 0.4177 | 0.3909 | 0.3634
